# Experimental data taken from ChEMBL document CHEMBL1201862, “PubChem BioAssay data set” (2004).
# The source made the active and inactive calls.
# Columns and labels:
# Beta-galactosidase = Beta-galactosidase (Escherichia coli, UniProt Q8VNN2); assay: Dose response counterscreen for EBI2 assay utilizing the enzyme, b-galactosidase.; assay type: functional
# [1] = Trypanosoma cruzi growth suppression in host cells – NIH3T3 host cells, beta-gal luminescence, confirmation (AID 2044); assay type: functional, cell-based;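 also: intracellular parasites grown in NIH/3T3 mouse fibroblasts as host cells; luminescent beta-galactosidase reporter signal from transgenic T. cruzi replicating inside host cells; inhibitors lower the luminescence signal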
# [2] = NIH3T3 cell viability loss – ATP luminescence, mouse fibroblasts, counter-screen, dose response (AID 2010); assay type: functional, cell-based;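 also: cells exposed to compound for about 90 hours before reading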
# Nonstructural protein 1 = Nonstructural protein 1 (Influenza A virus, UniProt Q194T2); assay type: functional, Influenza A virus (A/California/07/2009(H1N1))
# Sequence of Nonstructural protein 1 (Q194T2 whole entry): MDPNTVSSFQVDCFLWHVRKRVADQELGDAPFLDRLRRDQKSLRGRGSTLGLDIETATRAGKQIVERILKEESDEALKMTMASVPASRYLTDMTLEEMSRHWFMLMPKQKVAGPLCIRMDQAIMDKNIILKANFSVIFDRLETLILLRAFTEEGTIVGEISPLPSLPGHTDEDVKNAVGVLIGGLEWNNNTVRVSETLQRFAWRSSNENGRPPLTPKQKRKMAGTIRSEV
# INS1 = assay: INS-1E survival protection against cytokine death – cell-based, luminescence, retest, dose response (AID 449756); assay type: functional; conditions: Rattus norvegicus;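 also: cell death triggered by IL-1 beta plus TNF-alpha plus IFN-gamma mixture; protective hits raise ATP signal compared with cytokine alone wells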
# Protein RecA = molecular target: T1, Protein RecA (Mycobacterium tuberculosis, UniProt P9WHJ3); assay: Fluorescence Cell-Free Homogeneous Dose Retest to Identify Inhibitors of RecA-Intein Splicing Activity. [Related pubchem assays (depositor defined):AID2097, AID2223, AID489010, AID492950]; assay type: functional
# T1 sequence (P9WHJ3 whole entry): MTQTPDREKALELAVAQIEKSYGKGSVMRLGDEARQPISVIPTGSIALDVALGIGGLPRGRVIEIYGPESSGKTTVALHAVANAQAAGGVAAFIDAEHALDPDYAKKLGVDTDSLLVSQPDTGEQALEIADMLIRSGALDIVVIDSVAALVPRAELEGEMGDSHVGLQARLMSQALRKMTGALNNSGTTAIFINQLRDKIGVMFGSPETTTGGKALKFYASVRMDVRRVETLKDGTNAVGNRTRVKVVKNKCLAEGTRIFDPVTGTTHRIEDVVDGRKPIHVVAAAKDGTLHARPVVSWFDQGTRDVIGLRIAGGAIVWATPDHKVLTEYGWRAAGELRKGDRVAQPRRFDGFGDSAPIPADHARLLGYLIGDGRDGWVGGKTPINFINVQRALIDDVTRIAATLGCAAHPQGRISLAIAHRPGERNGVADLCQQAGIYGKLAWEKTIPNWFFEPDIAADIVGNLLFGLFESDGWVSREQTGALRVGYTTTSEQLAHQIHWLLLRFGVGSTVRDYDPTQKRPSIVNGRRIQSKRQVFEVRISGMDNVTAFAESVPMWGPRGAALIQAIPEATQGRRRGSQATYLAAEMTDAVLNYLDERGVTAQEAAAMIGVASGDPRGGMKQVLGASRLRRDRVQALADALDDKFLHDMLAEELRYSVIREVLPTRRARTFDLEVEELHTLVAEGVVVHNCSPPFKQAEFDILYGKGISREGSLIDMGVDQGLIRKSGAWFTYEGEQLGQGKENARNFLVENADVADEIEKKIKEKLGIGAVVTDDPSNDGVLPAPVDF
# cells [3] = assay type: functional, cell-based
# [4] = molecular target: T2, Replicative DNA helicase DnaB (Mycobacterium tuberculosis, UniProt P9WMR3); assay: DnaB intein splicing inhibitors, dose response, biochemical, cell-free fluorescence (AID 449749); assay type: functional
# T2 sequence (P9WMR3 whole entry): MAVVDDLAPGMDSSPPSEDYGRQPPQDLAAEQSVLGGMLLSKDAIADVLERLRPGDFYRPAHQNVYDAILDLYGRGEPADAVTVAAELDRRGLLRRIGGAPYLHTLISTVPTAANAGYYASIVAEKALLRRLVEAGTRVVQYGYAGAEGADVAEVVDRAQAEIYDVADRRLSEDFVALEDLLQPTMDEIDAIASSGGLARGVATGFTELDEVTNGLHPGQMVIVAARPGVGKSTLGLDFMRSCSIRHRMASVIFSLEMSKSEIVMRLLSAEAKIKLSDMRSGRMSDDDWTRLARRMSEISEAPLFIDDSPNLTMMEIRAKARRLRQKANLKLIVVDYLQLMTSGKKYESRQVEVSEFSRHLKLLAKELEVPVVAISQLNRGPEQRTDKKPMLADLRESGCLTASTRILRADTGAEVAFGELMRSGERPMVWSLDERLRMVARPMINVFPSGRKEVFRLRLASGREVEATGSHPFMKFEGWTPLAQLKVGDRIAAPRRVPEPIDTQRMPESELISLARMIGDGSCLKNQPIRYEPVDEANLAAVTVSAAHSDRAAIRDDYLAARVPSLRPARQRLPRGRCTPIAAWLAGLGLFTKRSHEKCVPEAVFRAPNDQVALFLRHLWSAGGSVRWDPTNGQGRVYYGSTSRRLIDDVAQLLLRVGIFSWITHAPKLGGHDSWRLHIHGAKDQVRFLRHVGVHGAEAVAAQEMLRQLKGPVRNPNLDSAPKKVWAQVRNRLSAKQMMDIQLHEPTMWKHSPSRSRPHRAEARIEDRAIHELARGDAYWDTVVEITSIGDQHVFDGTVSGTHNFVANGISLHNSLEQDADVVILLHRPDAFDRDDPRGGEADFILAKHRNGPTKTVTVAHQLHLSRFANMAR
# cells [5] = assay type: functional, cell-based; remark: listed apart in the source
# [6] = molecular target: T3, Calpain-2 catalytic subunit (Sus scrofa, UniProt P43367); assay: m-calpain protease blockers, concentration series – biochemical, fluorogenic peptide substrate, dose response (AID 1420); assay type: functional
# T3 sequence (P43367 whole entry): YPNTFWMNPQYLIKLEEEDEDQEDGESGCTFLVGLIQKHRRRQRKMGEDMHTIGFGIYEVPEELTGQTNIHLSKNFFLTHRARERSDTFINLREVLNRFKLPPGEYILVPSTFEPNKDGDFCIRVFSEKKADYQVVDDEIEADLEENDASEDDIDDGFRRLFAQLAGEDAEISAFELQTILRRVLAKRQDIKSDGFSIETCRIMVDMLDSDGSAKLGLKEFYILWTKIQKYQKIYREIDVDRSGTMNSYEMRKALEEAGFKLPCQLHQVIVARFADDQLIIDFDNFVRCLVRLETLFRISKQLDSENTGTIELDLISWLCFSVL
# [7] = blockers of HIV-1 ZM109 envelope-driven cell-cell fusion – HeLa effector, CEM target cells, luciferase, cherry-pick, dose response (AID 652058); assay type: functional, cell-based;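 also: luciferase signal from HIV-1 Env mediated cell-cell fusion of effector and target cells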
# [8] = molecular target: T4, Ubiquitin-conjugating enzyme E2 N (Homo sapiens, UniProt P61088); assay type: functional;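 also: Dose-response confirmation in a TR-FRET assay detecting UBC13-driven polyubiquitin chain formation, inhibition measured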
# T4 sequence (P61088 whole entry): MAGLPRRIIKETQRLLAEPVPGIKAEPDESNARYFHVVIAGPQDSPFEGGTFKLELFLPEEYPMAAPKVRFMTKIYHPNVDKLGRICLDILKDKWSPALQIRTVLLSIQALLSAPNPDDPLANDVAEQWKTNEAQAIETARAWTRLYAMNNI
# [9] = HIV-1 AD8 envelope cell-cell fusion blockers – cherry-pick, dose response (AID 652062); assay type: functional, cell-based;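 also: luciferase signal from cell-cell fusion driven by HIV-1 clade B AD8 Env; potency is for inhibitors of fusion seen as a drop in luminescence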
# [10] = blockers of HIV-1 envelope-mediated cell-cell fusion – cherry-pick, dose response (AID 652057); assay type: functional, cell-based
# [11] = molecular target: Heat shock protein HSP 90-alpha (Homo sapiens, UniProt P07900); assay type: functional, organism-based
# Paired box protein Pax-8 = Paired box protein Pax-8 (Homo sapiens, UniProt Q06710); assay: PAX8 transcriptional activity inhibition in RMG-I – RMG-I cells, luciferase, cherry-pick, dose response (AID 687027); assay type: functional, cell-based;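 also: luciferase reporter driven by Pax8 target thyroperoxidase promoter measured by SteadyGlo luminescence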
# Sequence of Paired box protein Pax-8 (Q06710 whole entry): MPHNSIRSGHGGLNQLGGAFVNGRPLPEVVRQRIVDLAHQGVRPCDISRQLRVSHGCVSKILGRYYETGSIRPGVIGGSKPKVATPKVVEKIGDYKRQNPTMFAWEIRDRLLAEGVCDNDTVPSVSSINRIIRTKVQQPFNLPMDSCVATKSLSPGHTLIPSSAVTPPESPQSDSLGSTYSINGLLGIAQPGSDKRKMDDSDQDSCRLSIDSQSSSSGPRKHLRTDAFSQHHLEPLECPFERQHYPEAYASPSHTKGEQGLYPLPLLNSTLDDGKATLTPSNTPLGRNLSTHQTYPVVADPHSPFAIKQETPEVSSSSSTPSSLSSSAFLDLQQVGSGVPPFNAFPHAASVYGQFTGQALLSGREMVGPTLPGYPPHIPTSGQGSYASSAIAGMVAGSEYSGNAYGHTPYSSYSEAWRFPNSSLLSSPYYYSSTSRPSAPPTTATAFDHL
# [12] = fluconazole-exposed Candida albicans growth modulators – fluorescence, retest, confirmation (AID 2467); assay type: functional, cell-based
# [13] = NIH-3T3 fibroblast cytotoxicity, dose response, cytotoxicity control, cell-based, fluorescence, Alamar Blue, secondary assay (AID 2327); assay type: functional;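 also: NIH-3T3 mouse fibroblasts cultured with fluconazole at 8 µg/mL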
# [14] = Luminescence Cell-Based Dose Retest to Confirm Inhibitors of Cancer Stem Cells. [Related pubchem assays (depositor defined):AID2717, AID2721]; assay type: functional; conditions: Homo sapiens
# [15] = luciferase reporter signal suppression in cells – H4 neuroglioma cells, luminescence, dose response (AID 1990); assay type: functional, cell-based
# [16] = loss of viability in HepG2 cells – cell-based, CellTiter-Glo, cherry-picked, cytotoxicity control for Shn3 inhibitor project, dose response (AID 624134); assay type: functional
# [17] = Luminescence Cell-Based Dose Response HTS to Identify Inhibitors of 5'UTR Stem-Loop Driven Prion Protein mRNA Translation in H4 Neuroglioblastoma Cells. [Related pubchem assays: 1827 (Project Summary), 1813 (Primary HTS)]; assay type: functional
# [18] = reduction of Shn3 3'UTR-driven luciferase in osteoblasts – cell-based, Clone20 osteoblasts, firefly luciferase, cherry-picked, dose response (AID 624132); assay type: functional;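 also: firefly luciferase luminescence from reporter carrying the Shn3 3'UTR in osteoblasts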
# [19] = non-specific 3'UTR reporter inhibition in Clone20-Shn3RL – cell-based, Renilla luciferase, cherry-picked, counter-screen for Shn3 inhibitor project, dose response (AID 624133); assay type: functional
# [20] = alpha-synuclein stem-loop luciferase translation blockers – H4 neuroglioma cells, luminescence, confirmation (AID 1988); assay type: functional, cell-based
# [21] = molecular target: Eukaryotic translation initiation factor 4E (Mus musculus, UniProt P63073); assay: blockers of eIF4G binding by eIF4E – biochemical, TR-FRET, dose response (AID 855); assay type: functional;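 also: potency for disrupting eIF4E binding to eIF4GI seen as loss of FRET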
# Sequence of Eukaryotic translation initiation factor 4E (P63073 whole entry): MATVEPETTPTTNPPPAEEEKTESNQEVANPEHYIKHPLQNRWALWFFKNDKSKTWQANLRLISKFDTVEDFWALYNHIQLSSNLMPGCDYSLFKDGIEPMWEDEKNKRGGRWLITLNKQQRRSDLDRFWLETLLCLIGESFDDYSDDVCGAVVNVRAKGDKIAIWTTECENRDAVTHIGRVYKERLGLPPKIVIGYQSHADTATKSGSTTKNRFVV
# [22] = molecular target: Induced myeloid leukemia cell differentiation protein Mcl-1 (Homo sapiens, UniProt Q07820); assay type: functional
# Sequence of Induced myeloid leukemia cell differentiation protein Mcl-1 (Q07820 whole entry): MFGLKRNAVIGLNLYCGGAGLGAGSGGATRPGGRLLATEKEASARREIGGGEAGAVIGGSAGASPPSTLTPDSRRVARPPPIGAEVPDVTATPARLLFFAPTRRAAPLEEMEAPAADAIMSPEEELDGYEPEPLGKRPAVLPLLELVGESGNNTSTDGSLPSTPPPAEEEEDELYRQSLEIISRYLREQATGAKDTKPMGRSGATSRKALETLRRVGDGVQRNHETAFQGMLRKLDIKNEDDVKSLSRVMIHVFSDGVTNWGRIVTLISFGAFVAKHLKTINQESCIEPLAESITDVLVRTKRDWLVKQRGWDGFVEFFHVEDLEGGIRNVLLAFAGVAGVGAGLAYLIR
# Sequence of Beta-galactosidase (Q8VNN2 whole entry): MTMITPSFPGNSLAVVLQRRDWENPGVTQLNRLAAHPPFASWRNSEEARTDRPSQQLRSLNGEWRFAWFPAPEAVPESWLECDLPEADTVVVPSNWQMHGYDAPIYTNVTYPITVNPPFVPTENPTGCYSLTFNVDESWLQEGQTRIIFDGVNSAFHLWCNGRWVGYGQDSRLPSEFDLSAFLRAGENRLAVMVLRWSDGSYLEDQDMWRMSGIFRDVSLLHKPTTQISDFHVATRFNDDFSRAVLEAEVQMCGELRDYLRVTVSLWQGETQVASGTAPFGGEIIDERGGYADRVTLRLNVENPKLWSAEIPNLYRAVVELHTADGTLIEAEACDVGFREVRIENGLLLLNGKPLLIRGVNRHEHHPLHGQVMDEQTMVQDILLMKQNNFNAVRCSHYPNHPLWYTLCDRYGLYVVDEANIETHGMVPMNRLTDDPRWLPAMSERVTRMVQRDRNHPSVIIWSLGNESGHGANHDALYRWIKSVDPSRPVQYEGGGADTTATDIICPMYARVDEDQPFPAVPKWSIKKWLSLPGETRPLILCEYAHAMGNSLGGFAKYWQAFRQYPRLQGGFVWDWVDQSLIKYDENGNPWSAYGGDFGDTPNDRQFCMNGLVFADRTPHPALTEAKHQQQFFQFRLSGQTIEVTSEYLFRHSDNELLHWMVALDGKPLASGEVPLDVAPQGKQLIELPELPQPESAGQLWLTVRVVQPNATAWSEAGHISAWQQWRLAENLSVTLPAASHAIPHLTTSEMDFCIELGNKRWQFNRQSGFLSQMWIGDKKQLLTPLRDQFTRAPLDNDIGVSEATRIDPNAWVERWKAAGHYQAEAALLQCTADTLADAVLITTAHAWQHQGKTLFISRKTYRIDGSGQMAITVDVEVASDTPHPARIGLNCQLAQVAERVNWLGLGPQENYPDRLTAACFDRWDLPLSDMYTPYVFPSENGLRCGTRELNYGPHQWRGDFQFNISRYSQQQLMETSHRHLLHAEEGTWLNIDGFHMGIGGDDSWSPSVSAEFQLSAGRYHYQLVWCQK
smiles,measurement,setting,value
CNC(=S)N1N=C(c2ccc(OC)cc2)CC1c1ccc(N(C)C)cc1 (configuration not stated),IC50,Beta-galactosidase,> 80 µM (inactive)
Cc1nc2ccccc2nc1N/N=C/c1ccc(O)cc1O,EC50,[1],2.05 µM (active)
same,EC50,[2],8.31 µM (active)
same,IC50,Nonstructural protein 1,14.1 µM (active)
same,AC50,INS1,0.882 µM (active)
same,EC50,Protein RecA,> 380 µM (inconclusive)
same,EC50,cells [3],12.1 µM (active)
same,AC50,[4],> 380 µM (inactive)
same,EC50,cells [5],> 350 µM (not active)
O=C(COc1ccc(Cl)cc1)N1CCN(C(=O)c2cccc(F)c2)CC1,IC50,Beta-galactosidase,> 80 µM (inactive)
CCCCCCSc1nnc(-c2cnn(-c3ccccc3)c2-n2cccc2)n1C,IC50,[6],7.59 µM (not active)
O=C(Cn1nc(-c2ccc3c(c2)OCCO3)ccc1=O)Nc1cccc(NC(=O)c2ccccn2)c1,IC50,[6],> 50 µM (not active)
COc1ccccc1N1CCN(C(=O)c2cc3c(C)nc4ccccc4c3o2)CC1,IC50,Beta-galactosidase,> 80 µM (inactive)
CC1CC1C(=O)OCC(=O)Nc1ccccc1Oc1ccccc1 (configuration not stated),IC50,[6],33.3 µM (not active)
COc1ccc(-c2cc(C3CCN(c4cc(Cl)nc(N)n4)CC3)[nH]n2)cc1,AC50,[7],0.295 µM (active)
same,IC50,[8],> 20 µM (inactive)
same,AC50,[9],26.4 µM (active)
same,AC50,[10],42.9 µM (active)
COc1ccc2c(n1)Sc1nc3ccccc3nc1N2,AC50,[11],1.96 µM (active)
CC(=NNC(=S)N1CCC1)c1ccccn1,IC50,Nonstructural protein 1,2.09 µM (active)
same,AC50,Paired box protein Pax-8,< 0.26 µM (active)
same,AC50,[11],1.58 µM (active)
O=C1CCN(Cc2ccccc2)C=C1c1ccc(Br)cc1,IC50,Beta-galactosidase,> 80 µM (inactive)
COCCNC(=O)CCCn1c(=O)c2cc(OC)c(OC)cc2n(CC(=O)NCCC2=CCCCC2)c1=O,EC50,[12],3.16 µM (active)
same,EC50,[13],> 160 µM (inactive)
Cc1ccc(S(=O)(=O)N(C(=O)c2ccncc2)c2ccc(OC(=O)c3ccncc3)cc2)cc1,AC50,[11],1.23 µM (active)
O=c1c2c3c(sc2ncn1/N=C/c1ccc([N+](=O)[O-])o1)CCCC3,AC50,[14],4.45 µM (active)
same,AC50,[11],0.637 µM (active)
O=C(COc1ccc(Br)cc1)N1CCN(S(=O)(=O)/C=C/c2ccccc2)CC1,IC50,Beta-galactosidase,> 80 µM (inactive)
CCOC(=O)C1CCN(C(=O)/C=C/c2ccc(OC)cc2)CC1,IC50,Beta-galactosidase,> 80 µM (inactive)
CCN(CC)C1CC(=O)N(c2cccc(Cl)c2)C1=O (configuration not stated),AC50,[11],2.21 µM (active)
OCc1ccc(O)c2ncccc12,IC50,Nonstructural protein 1,10.5 µM (active)
same,AC50,INS1,3.37 µM (active)
same,EC50,[15],0.712 µM (active)
same,AC50,[16],5.94 µM (active)
same,EC50,[17],2.95 µM (active)
same,AC50,[18],1.66 µM (active)
same,EC50,[12],> 38 µM (not active)
same,AC50,[19],2.24 µM (active)
same,EC50,[13],> 150 µM (inactive)
same,EC50,[20],1.2 µM (active)
Cc1cccc(N2CCN(C(=O)c3cc4c(=O)[nH]c5ccccc5c4n3C)CC2)c1C,IC50,Beta-galactosidase,> 80 µM (inactive)
CCCC(=O)n1nc(NCc2ccc(OC)cc2)nc1NCc1ccc(OC)cc1,IC50,[6],< 0.4 µM (not active)
O=S(=O)(Cc1ccc(Cl)cc1)N1CCN(Cc2ccccc2)CC1,EC50,[12],> 38 µM (not active)
same,EC50,[13],> 160 µM (inactive)
Cc1cccc(NC(=O)NCc2ccc3[nH]c(C)cc3c2)c1,IC50,[6],7.26 µM (not active)
COc1ccc(OC)c(NC(=O)C(=O)/C=C(\O)c2cc(OC)ccc2OC)c1,EC50,[12],> 38 µM (not active)
same,EC50,[13],29.9 µM (inconclusive)
COc1ccc(NC(=O)c2c(N)no[n+]2[O-])cc1,AC50,[14],0.754 µM (active)
same,EC50,[12],2.19 µM (active)
same,EC50,[13],1.6 µM (active)
Cc1cc(C)n2nc(C(=O)NCc3ccccc3)cc2n1,IC50,[21],> 64 µM (inactive)
CC(C)=CCc1c(O)ccc(C2COc3c(CC=C(C)C)c(O)cc(O)c3C2=O)c1O (configuration not stated),AC50,[11],15.9 µM (active)
CC1CCN(c2nc3ccccc3n2CC(=O)c2ccccc2)CC1,IC50,[6],> 50 µM (not active)
CC1=CC2=NC(=O)CC(C)(C(=O)N(CC(=O)NC3CCCC3)c3cc(C)cc(C)c3)N2C=C1 (configuration not stated),IC50,[21],50 µM (inactive)
N#Cc1c(NC(=O)c2cccc(S(=O)(=O)Nc3ccc(C(=O)O)cc3)c2)sc2c1CCCC2,IC50,[6],13.7 µM (not active)
same,IC50,[22],6.52 µM (active)
N#C/C(=C/c1ccc(O)cc1)C(=O)NCc1ccc(Cl)cc1,AC50,[11],3.08 µM (active)
Cc1ccc2oc(=O)c3cnn(CC(=O)N(CCC(C)C)Cc4ccco4)c3c2c1,IC50,Beta-galactosidase,> 80 µM (inactive)
CCOc1cc(C(=O)Nc2ccc3c4c(cccc24)C(=O)N3CC)cc(OCC)c1OCC,IC50,[21],> 64 µM (inactive)
O=C(/C=C/c1ccccc1)N1CCN(c2c(Cl)cccc2[N+](=O)[O-])CC1,IC50,Beta-galactosidase,> 80 µM (inactive)
NC(=O)C1CCN(C2CC(=O)N(c3ccc(F)c(Cl)c3)C2=O)CC1 (configuration not stated),AC50,[11],3.04 µM (active)
